For the assay, the target named is BRDT-BD2 (Homo sapiens (Human), UniProt Q58F21). Nature of the assay: AlphaScreen bromodomain proximity assay (competition with biotinylated (+)-JQ1), BRDT-BD2. In kind it is binding. For orientation: Alpha assays give light when donor and acceptor beads are brought close together.

Some results are limits rather than exact numbers.

As a reminder, the IC50 is the concentration needed to halve the response being measured. A higher IC50 goes with weaker potency. For `Cc1cc(N)ccc1-c1nn(C)c2ccc(C(=O)Nc3ccc(C(F)(F)F)cc3)cc12` [compound 61, 3-(4-Amino-2-methylphenyl)-1-methyl-N-(4-(trifluoromethyl)phenyl)-1H-indazole-5-carboxamide], the IC50 came to 0.898 µM.

The compound `Cn1nc(-c2ccc(N)nc2)c2cc(C(=O)NC3CCN(C(=O)OC(C)(C)C)CC3)ccc21` [compound 52, tert-Butyl 4-(3-(6-aminopyridin-3-yl)-1-methyl-1H-indazole-5-carboxamido)piperidine-1-carboxylate] showed an IC50 of over 0.2 µM.

Turning to `CNC(=O)[C@H]1CC[C@H](C(=O)Nc2cc(NC(=O)c3ccc4c(c3)c(-c3ccc(N)nc3)nn4C)ccc2C)CC1` [compound 49], the IC50 came to 0.068 µM.

Consider `COc1ccc(NC(=O)c2ccc3c(c2)c(-c2cc4ccccc4n2C)nn3C)cc1OC` [compound 30, N-(3,4-Dimethoxyphenyl)-1-methyl-3-(1-methyl-1H-indol-2-yl)-1H-indazole-5-carboxamide], for which the IC50 turned out to be 0.101 µM.

For `COc1ccc(NC(=O)c2ccc3c(c2)c(-c2cc4ccccc4n2C)nn3C)cc1F` [compound 31, N-(3-Fluoro-4-methoxyphenyl)-1-methyl-3-(1-methyl-1H-indol-2-yl)-1H-indazole-5-carboxamide], the IC50 amounted to 0.119 µM.

Take `Cc1ccc(NC(=O)c2ccc3c(c2)c(-c2ccc(N)nc2)nn3C)cc1NC(=O)C1CCN(C)CC1` [compound 45, 3-(6-Aminopyridin-3-yl)-1-methyl-N-(4-methyl-3-(1-methylpiperidine-4-carboxamido)phenyl)-1H-indazole-5-carboxamide]: the half-inhibitory concentration (IC50) was found to be 0.058 µM.

In turn, `CC(=O)Nc1cc(NC(=O)c2ccc3c(c2)c(-c2cnc(N)cc2C)nn3C)ccc1C` [compound 16, N-(3-Acetamido-4-methylphenyl)-3-(6-amino-4-methylpyridin-3-yl)-1-methyl-1H-indazole-5-carboxamide] registered an IC50 of 0.126 µM.

On to `COc1ccc(NC(=O)c2ccc3c(c2)c(-c2cc4ccccc4n2C)nn3C)c(F)c1` [compound 35, N-(2-Fluoro-4-methoxyphenyl)-1-methyl-3-(1-methyl-1H-indol-2-yl)-1H-indazole-5-carboxamide], for which the IC50 turned out to be 0.203 µM.

Compound `COc1ccc(NC(=O)c2ccc3c(c2)c(-c2ccncc2)nn3C)cc1` [compound 43, N-(4-Methoxyphenyl)-1-methyl-3-(pyridin-4-yl)-1H-indazole-5-carboxamide] yielded an IC50 of 0.978 µM.

With `CNC(=O)c1ccc(C(=O)Nc2cc(NC(=O)c3ccc4c(c3)c(-c3ccc(OCc5ccccc5)cc3)nn4C)ccc2C)cc1` [compound 37, N^1-(5-(3-(4-(Benzyloxy)phenyl)-1-methyl-1H-indazole-5-carboxamido)-2-methylphenyl)-N^4-methylterephthalamide], the IC50 was over 10 µM.

In the case of `COc1ccc(NC(=O)c2ccc3c(c2)c(-c2cc4ccccc4n2C)nn3C)c(C)c1` [compound 33, N-(4-Methoxy-2-methylphenyl)-1-methyl-3-(1-methyl-1H-indol-2-yl)-1H-indazole-5-carboxamide], the IC50 amounted to 0.183 µM.

`COc1ccc(NC(=O)c2ccc3c(c2)c(-c2cc4ccccc4n2C)nn3C)c(OC)c1` [compound 34, N-(2,4-Dimethoxyphenyl)-1-methyl-3-(1-methyl-1H-indol-2-yl)-1H-indazole-5-carboxamide] returned an IC50 of 0.926 µM.

`COc1ccc(NC(=O)c2ccc3c(c2)c(-c2cc4ccccc4n2C)nn3C)cc1I` [compound 69, N-(3-Iodo-4-methoxyphenyl)-1-methyl-3-(1-methyl-1H-indol-2-yl)-1H-indazole-5-carboxamide] gave an IC50 of 0.502 µM.

Regarding `COc1ccc(NC(=O)c2ccc3c(c2)c(-c2cc4ccccc4n2C)nn3C)cc1Cl` [compound 32, N-(3-Chloro-4-methoxyphenyl)-1-methyl-3-(1-methyl-1H-indol-2-yl)-1H-indazole-5-carboxamide], the IC50 is 0.164 µM.

The values above are taken from patent US20240158355A1, “BET SUBFAMILY INHIBITORS AND METHODS USING SAME” (Baylor College of Medicine, priority 2021, published 2024).
